Tests used:
[1] = target: QSOX1 5′UTR hairpin (model of the QSOX1-a binding site); assay: In vitro binding by fluorescence polarization, Cy5-labeled WT RNA; parameters: species or system human
Method: In Vitro Binding by Measuring Changes in Fluorescence Polarization. Cy5-labeled RNA was folded by heating at 95° C. for 2 min in 1× Folding Buffer and cooled on ice. Serial dilutions of F1 (200 to 0.4 μM, 1:1 dilutions) were prepared in 1× Folding Buffer with 4% (w/v) bovine serum albumin (BSA) with constant DMSO concentration (2% v/v). The compound solutions (10 μL) were added to a well of non-binding 384-well plate (Corning). An equal volume of folded RNA was adding to each well with a final concentration of 50 nM. The samples were incubated at room temperature for 30 min, and then fluorescence polarization was measured with a Molecular Devices SpectraMax M5 plate reader with an excitation wavelength of 640 nm and an emission wavelength of 680 nm.

[2] = system: WT model of the QSOX1-a hairpin structure; assay: Optical melting, WT model RNA; type: binding, human
Method: (§1) Optical Melting Experiments. The thermal stability of WT and mutant model RNAs in the presence and absence of F1-Amide was measured by optical melting. The RNA ([…]) was prepared in 1× Melting Buffer (8 mM Na2HPO4, pH 7, 10 mM NaCl, and 1 mM EDTA) and heated to 95° C. followed by cooling on ice. F1-Amide was added to the final concentration of 2 mM; an equal volume of DMSO was added to the vehicle sample. The absorbance of the solution at 260 nm was measured by a Beckman Coulter DU800 spectrophotometer as a function of temperature, from 12° C. to 85° C. at a rate of 1° C./min. The background absorbance of buffer with DMSO or compound was subtracted before fitting the curve with MeltWin (v3.5)^7 to determine the melting temperature (Tm) and the Gibbs free energy (ΔG37° C.).

[3] = system: mutant RNA (U-bulge mutated to U/A base pair); assay: Optical melting, mutant model RNA; type: binding
Method: as §1

[4] = system: wild type (WT) QSOX1 5′ UTR RNA hairpin; assay: In vitro Chem-CLIP and competitive Chem-CLIP with Cy5-labeled WT RNA; type: binding, human; conditions: constant concentration of F1, increasing competitor
Method: In Vitro Chemical-Crosslinking and Isolation by Pull-down (Chem-CLIP) with Fluorescently Labeled RNA. Cy5-labeled RNA (100 μL, 2 μM) was folded by heating at 95° C. for 2 min in 1× Folding Buffer and cooled on ice. The RNA was then mixed with F1 at the indicated concentrations. The sample was irradiated with UV light (365 nm) for 15 min and then added to 100 μL of azide-disulfide agarose beads (Click Chemistry Tools, 1238-2) pre-washed with 200 μL of 25 mM HEPES, pH 7.0. A click reaction solution was prepared by mixing 30 μL of 250 mM sodium ascorbate, 30 μL of 10 mM CuSO4, and 30 μL of 50 mM THPTA, which was added to the sample. The sample was incubated while rotating at 37° C. for 2 h, briefly centrifuged, and then the supernatant was decanted. The beads were washed six times with 1× Washing Buffer (10 mM Tris-HCl, pH 7, 4 M NaCl, 1 mM EDTA, and 0.05% (v/v) Tween-20) following by incubation with 1× Releasing Buffer (50 mM TCEP and 100 mM K2CO3) at 37° C. for 30 min. An equivalent of iodoacetamide (200 mM) was added to the sample, which was incubated at 37° C. for an additional 30 min. The sample was briefly centrifuged and supernatant containing RNA was carefully transferred to a clean tube. Cy-5 fluorescence in the supernatant was measured with a Molecular Devices SpectraMax M5 plate reader with an excitation wavelength of 640 nm and an emission wavelength of 680 nm. For competitive Chem-CLIP, F1-RIBOTAC was added to the folded the RNA and incubated at room temperature for 15 min prior to the addition of F1. Pull-down was then completed as described above.

QSOX1-a protein = QSOX1-a protein abundance by Western blotting in MDA-MB-231 cells; type: cell-based, human; conditions: 20 μM
Method: (§2) Measuring Protein Abundance by Western Blotting. MDA-MB-231 cells were seeded in 6-well plates at ˜50% confluency and treated with vehicle (DMSO) or compound as described above but without EU treatment. After 16 h, the compound-containing growth medium was removed and replaced with fresh medium containing compound (re-dosing). After an additional 32 h incubation, total protein was harvested (48 h total treatment time). The cells were then washed twice with cold 1×DPBS, and total protein was harvested by using Mammalian Protein Extraction Reagent (M-PER, Thermo Scientific) per the manufacturer's protocol. Protein concentration was quantified by using BCA Protein Assay Kit (Pierce), and the proteins were separated by using 10% SDS-polyacrylamide gel (20 μg protein per lane). After gel electrophoresis in 1× Running Buffer (50 mM MOPS, 50 mM Tris-base, pH 7.5, 1 mM EDTA, and 0.1% (w/v) SDS) at 120 V for 1 h, the proteins were transferred to a PVDF membrane (0.45 μm, Cytiva) at 300 mA for 1 h in 1× Transfer Buffer (25 mM Bicine, 25 mM Tris-base, pH 7.5, 1:4 MeOH:H2O). The membrane was blocked with 5% (w/v) non-fat dry milk in TBST (1×TBS containing 0.1% (v/v) Tween-20) for 1 h at room temperature. The primary antibody for QSOX1 protein (Cat #10092-932, Proteintech) or SQSTM1 protein (Cat #ab 109012, Abcam) was incubated with 1:1000 dilutions at 4° C. for 16 h. The membrane was then washed by TBST four times (5 min each) and then incubated with the secondary antibody (Cat #7074S, Cell Signaling) with 1:5000 dilution at room temperature for 2 h. The membrane was washed with TBST four times (5 min each) and imaged by using a SuperSignal West Pico Chemiluminescent Substrate (Pierce) per manufacturer's protocol. The blot was stripped by washing the membrane in 1× Stripping Buffer (200 mM glycine, pH 2.2, 4 mM SDS, 1% (v/v) Tween 20) at room temperature for 30 min, followed by blocking again as described above. […] Expression levels of proteins were quantified based on band intensity by using ImageJ. […]

SQSTM1 protein = SQSTM1 protein abundance by Western blotting in MDA-MB-231 cells; type: cell-based, human; conditions: F1-Amide 20 μM, F1-RIBOTAC 10 μM, 48 h
Method: as §2, with “temperature.” for “temperature. The primary antibody for QSOX1 protein (Cat #10092-932, Proteintech) or SQSTM1 protein (Cat #ab 109012, Abcam) was incubated with 1:1000 dilutions at 4° C. for 16 h. The membrane was then washed by TBST four times (5 min each) and then incubated with the secondary antibody (Cat #7074S, Cell Signaling) with 1:5000 dilution at room temperature for 2 h. The membrane was washed with TBST four times (5 min each) and imaged by using a SuperSignal West Pico Chemiluminescent Substrate (Pierce) per manufacturer's protocol. The blot was stripped by washing the membrane in 1× Stripping Buffer (200 mM glycine, pH 2.2, 4 mM SDS, 1% (v/v) Tween 20) at room temperature for 30 min, followed by blocking again as described above.”

MDA-MB-231 cells [5] = assay: Invasion assay; type: cell-based, human; conditions: 48 h
Method: Invasion Assay. MDA-MB-231 cells were seeded in […] and treated with compound or transfected by ASO for 48 h as described in Cell Culture. After treatment for 48 h, the medium was replaced with fresh medium that contains same concentration of compound but lacking FBS for 8 h (serum starvation). ThinCert (GBO) 24-well inserts with 8 μm pores were coated with 100 μL of 0.5 mg/mL Matrigel (Fisher Scientific: CB40234) per well, and then cells were added into the insert (50,000 cells per well). Fresh growth medium with FBS was added to a 24-well plate (600 μL each well), and the inserts containing cells were placed on the top, allowing medium to cover the bottom of the insert. After 16 h, all medium was removed, and cells were washed by 1×DPBS twice. Cells were then fixed with 3% (w/v) paraformaldehyde (PFA) in 1×DPBS at room temperature for 30 min, followed by staining with Crystal Violet (10 mg/mL; 4:1H2O:MeOH) at room temperature for 20 min. A cotton swab was used to gently remove non-invasive cells on sitting on top of the Matrigel. The inserts were then imaged under a regular optical microscope (3 views per well), and the number of invasive cells were counted manually.

MDA-MB-231 cells [6] = assay: Proliferation assay; type: cell-based, human; conditions: 48 h treatment
Method: Proliferation Assay. MDA-MB-231 cells were seeded in 96-well plates (Corning) at ˜40% confluency and treated with compound or transfected with ASO as described in Cell Culture. Compound was replenished every 16 h by replacing all the growth medium with freshly prepared medium containing same concentration of compounds. After 48 h total treatment period, proliferation was measured by using CellTiter 96 AQueous One Solution Cell Proliferation Assay (Cat #G3582, Promega) per manufacturer's protocol.

human transcriptome = assay: Chem-CLIP-Map-Seq transcriptome-wide target profiling in live MDA-MB-231 cells; type: cell-based; conditions: 20 μM, 16 h; for number of transcripts enriched (Chem-CLIP-seq): before excluding control probe overlap
Method: Additional studies were performed in live MDA-MB-231 cells to profile the cellular targets as well as the small molecule binding site within them, via Chem-CLIP-Map-Seq,^21 which had not previously been applied transcriptome-wide. After treatment (20 μM; 16 h) and cross-linking, total RNA was harvested and fragmented prior to pull-down (FIG. 2A). Random fragmentation was completed first to: 1) reduce sequence bias in library preparation, 2) reduce background signal in the RNA-seq analysis; and 3) allow for only the regions bound by the small molecules to be pulled down rather than the entire transcript, identifying both the target and the binding site within it. In parallel, a control diazirine probe that lacks an RNA-binding functionality (FIG. 2B) was used to identify targets that non-specifically react with the cross-linking moiety, where cross-linking is not driven by the RNA-binding elements.
Genrich uses a null model with a log-normal distribution to calculate p values by comparing sequencing runs of the same RNA sample before and after pull-down.
Chemical-Cross-linking and Isolation by Pull-down (Chem-CLIP) in Live Cells. MDA-MB-231 cells were seeded in 60 mm dishes and allowed to reach ˜80% confluency. The cells were then treated with 20 μM of compound in growth medium and incubated for 16 h. Cells were washed with 1×DPBS and irradiated with UV light for 10 min. Total RNA was harvested using a Zymo Quick-RNA Miniprep Kit per the manufacturer's protocol with DNase treatment. Total RNA was chemically fragmented by using an NEBNext Magnesium RNA Fragmentation Module (E6150S) per manufacturer's protocol to achieve final lengths between 100-150 nucleotides Pull-down of cross-linked RNAs was performed by adding 10 μg of total RNA to 100 μL of azide-disulfide agarose beads (Click Chemistry Tools, 1238-2) pre-washed with 25 mM HEPES, pH 7.0. The click reaction and pull-down were completed as described in “In Vitro Chemical-Crosslinking and Isolation by Pull-down (Chem-CLIP) with Fluorescently Labeled RNA”. The pulled down RNA was purified by RNA CleanXP beads (Beckman, A66514) per manufacturer's protocol.
RNA-seq Library Preparation and Data Analysis. The quality of the pulled down RNA was analyzed by using an Agilent 2100 Bioanalyzer RNA nanochip as well as to confirm fragment lengths. RNA concentration was quantified by Qubit 2.0 Fluorometer (Invitrogen). The input RNA (200 ng) was depleted of ribosomal RNA with NEBNext rRNA Depletion Module (E6310) according to manufacturer's recommendations. Library preparation was performed with NEBNext Ultra II Directional RNA kit (E7760) per manufacturer's protocols. Briefly, the rRNA-depleted samples were reverse transcribed with random hexamer primers to generate first strand cDNA, followed by second strand synthesis with dUTP instead of dTTP. The cDNA was end repaired and adenylated at their 3′ ends, followed by adaptor ligation. The strand information of the RNA was preserved by using USER enzyme (Uracil-specific excision reagent) to degrade the second strand. The cDNA was then PCR amplified with barcoded Illumina-compatible primers to generate the final libraries. These libraries were loaded into a NextSeq 500 v2.5 flow cell and sequenced with 2×40 bp paired-end chemistry. All fastq files were aligned to the human genome by STAR.^9 The output bam files were processed by Genrich (v0.6.1, available at https://github.com/jsh58/Genrich) for peak calling to identify regions of enrichment (p<0.001 and False Discovery Rate=1%). Fold enrichment was calculated by Deeptool^10 and visualized by IGV browser.^11 A minimum read count of 5 and a minimum fold enrichment of 1.5 were applied filter to filter out low-confidence peaks.

[7] = upon addition of small molecule

SMILES	number of enriched transcripts also enriched by the control probe (human transcriptome)	share of enriched transcripts also enriched by the control probe (human transcriptome)	unique transcripts identified for the small molecule (human transcriptome)	number of transcripts enriched (Chem-CLIP-seq) (human transcriptome)	further results
CCCNC(=O)CCC(=O)N(C)[C@H]1CC[C@@H](c2ccc(Cl)c(Cl)c2)c2ccccc21 [Compound F1-Amide]					Kd [1]: 26 ± 9 µM; Tm of WT model RNA upon addition of compound ([2]; RNA alone 51.8): 53.7 °C; ΔG37° C. of WT model RNA upon addition of compound ([2]; RNA alone −2.7): -3.0 kcal/mol; decrease of DG°37 [2, 7]: 0.3 kcal/mol; increase of melting temperature (Tm) [2, 7]: 1.9 °C; effect on Tm or ΔG37° C. of mutant RNA [3]: No significant effect; competition of F1 cross-linking to the QSOX1-a target site (competitive Chem-CLIP) [4]: dose-dependently competed off; reduction of QSOX1-a protein (QSOX1-a protein): ~15%; effect on SQSTM1 protein levels (SQSTM1 protein): Neither; effect on invasion (MDA-MB-231 cells [5]): no significant effect; effect on proliferation of MDA-MB-231 cells (MDA-MB-231 cells [6]): dose-dependently reduced proliferation
C#CCCC1(CCC(=O)N2CCN(c3nncc4sccc34)CC2)N=N1 [Compound F2]	52 transcripts	31%	38	166 transcripts	
C#CCCC1(CCC(=O)N(CCNC(=O)c2ccc(C)c(F)c2)Cc2ccncc2)N=N1 [Compound F3]	53 transcripts	32%		163 transcripts	
C#CCCC1(CCC(=O)Nc2nnc(SCc3ccc(F)c4cccnc34)n2C)N=N1 [Compound F5]	57 transcripts	62%	3	92 transcripts	number of transcripts enriched after eliminating transcripts also bound by the control diazirine (human transcriptome): 35
C#CCCC1(CCC(=O)Nc2nc(-c3ccc(-n4cccn4)cc3)cs2)N=N1 [Compound F6]	55 transcripts	43%		127 transcripts	

Reference: US20250346943A1, “DEGRADER COMPOUNDS OF QSOX1 mRNA” (UNIVERSITY OF FLORIDA RESEARCH FOUNDATION, INCORPORATED, priority 2022, published 2025)
